The subject of the first assay is IgE. The assay is described as follows: Atopic dermatitis efficacy test using B lymphocytes (RPMI 1788): IgE released after LPS, ELISA. Type of assay: cell-based, human. Further details: key: •: have statistical significance, determining as effective, compared with the positive control. The note with it: Table 3, 1 μg/mL for 24 hours, then LPS 0.1 μg/mL 24 hours, vs stimulator only. As for the experimental part: (§1) To select an amino acid sequence corresponding to a key active site of ZAG having efficacy in the alleviation of atopic symptoms from 18 peptide candidate groups, an atopic dermatitis efficacy test was performed. Five types of immune-related cells were treated with ZAG peptide candidate groups (Z1-Z18, SEQ ID NOs: 1 to 18, respectively) and the ZAG protein (Z0, SEQ ID NOs: 19) at a concentration of 1 μg/mL for 24 hours, and then treated with a stimulator suitable for each cell line for the listed time to confirm an immune response. The experiment was performed with a group treated with only a stimulator as a positive control experimental group, and a group treated with only a vehicle without a stimulator as a negative control experimental group (Table 2: Efficacy test method for atopic dermatitis). An inflammatory response-related enzyme used as a stimulator is produced by immune cells, and histamine initiates an inflammatory response. The immune cells migrating to a damaged region release cytokines such as tumor necrosis factor-α (TNF-α) and interleukin-6 (IL-6) to directly lyse foreign invasive substances or collect other immune cells to initiate an inflammatory response. An efficacy test using inflammation-inducing materials, interferon-γ and skin inflammation-related factor CCL-17/thymus- and activation-regulated chemokine (TARC) was also performed to confirm an immune response.
B lymphocytes (RPMI 1788) were treated with 0.1 μg/mL of LPS as a stimulator for 24 hours, and a concentration of IgE released in a cell culture medium was confirmed by ELISA assay.
(§2) Various types of immune cells were treated with each of Z20mer-1, Z20mer-2, Z20mer-3, Z15mer-1, Z15mer-2, Z15mer-3 and Z15mer-4 at a concentration of 1 μg/mL for 24 hours, and then treated with a stimulator suitable for each cell line for the listed time to confirm an immune response. The atopic dermatitis efficacy test method was performed by the same method as described in Example 1 and Table 2.
(§3) The experiment was performed with experimental groups: 1) negative control: vehicle-treated group (Neg), 2) positive control: a group treated with only a stimulator (Pos), and 3) experimental group: groups treated with a stimulator and ZAG3 or a ZAG3-derived oligopeptide (Z20mer-1, Z20mer-2, Z20mer-3, Z15mer-1, Z15mer-2, Z15mer-3 or Z15mer-4). Concentrations were measured from cell culture by ELISA.
B lymphocytes (RPMI 1788) were treated with 0.1 μg/mL of LPS as a stimulator for 24 hours, and then a concentration of IgE released in a cell culture medium was confirmed by ELISA assay. As compared with the positive control (Pos), in all of the oligopeptide-treated groups, IgE was reduced (FIG. 2D).
Background: In an ELISA, binding on a coated surface is turned into a signal by an enzyme label.
Take “Z3: ZAG protein-derived peptide, SEQ ID NO. 3: EDWKQDSQLQKAREDIFMETLKDIVEYYND (ZAG protein-derived peptide)”: the “B lymphocyte (human) IgE” value is “•”.
Consider “Z4: ZAG protein-derived peptide, SEQ ID NO. 4: SNGSHVLQGRFGCEIENNRSSGAFWKYYYD (ZAG protein-derived peptide)”, for which the “B lymphocyte (human) IgE” value was “•”.
Regarding “Z5: ZAG protein-derived peptide, SEQ ID NO. 5: GKDYIEFNKEIPAWVPFDPAAQITKQKWEA (ZAG protein-derived peptide)”, the “B lymphocyte (human) IgE” value is “•”.
As to “Z6: ZAG protein-derived peptide, SEQ ID NO. 6: EPVYVQRAKAYLEEECPATLRKYLKYSKNI (ZAG protein-derived peptide)”, the “B lymphocyte (human) IgE” value was “•”.
Take “Z7: ZAG protein-derived peptide, SEQ ID NO. 7: LDRQDPPSVVVTSHQAPGEKKKLKCLAYDF (ZAG protein-derived peptide)”: the “B lymphocyte (human) IgE” value is given as “•”.

The next assay deals with IL-4. The assay is described as follows: Atopic dermatitis efficacy test using T lymphocytes: IL-4 released after IL-2, ELISA. Format: cell-based, human. Set-up: key to T lymphocyte (human) IL-4: •: have statistical significance, determining as effective, compared with the positive control. To be noted: Example 1-5, FIG. 1E; T lymphocytes; 1 μg/mL 24 hours, IL-2 50 ng/mL 12 hours. On the procedure: as §1
An atopic dermatitis efficacy test using T lymphocytes was performed with six peptide candidate groups (Z3, Z4, Z5, Z12, Z14, and Z15), which were determined to have efficacy from the results of Examples 1-1 to 1-4 described above. T lymphocytes were treated with 50 ng/mL of IL-2 as a stimulator for 12 hours, and a concentration of IL-4 released in a cell culture medium was confirmed by ELISA assay.
as §2, §3
An experiment was performed on T lymphocytes using the target peptides selected through the previous experiment. As compared with the positive control (Pos), in all of the oligopeptide-treated groups (Z20mer-1, Z20mer-2, Z20mer-3, Z15mer-1, Z15mer-2, Z15mer-3, and Z15mer-4), IL-4 was reduced (FIG. 2E).
As for “Z3: ZAG protein-derived peptide, SEQ ID NO. 3: EDWKQDSQLQKAREDIFMETLKDIVEYYND (ZAG protein-derived peptide)”, the “IL-4 concentration released in cell culture medium” value is on record as “significantly decreased”.
The same measure, in the same setting: under “Z4: ZAG protein-derived peptide, SEQ ID NO. 4: SNGSHVLQGRFGCEIENNRSSGAFWKYYYD (ZAG protein-derived peptide)” stands “significantly decreased”; under “Z5: ZAG protein-derived peptide, SEQ ID NO. 5: GKDYIEFNKEIPAWVPFDPAAQITKQKWEA (ZAG protein-derived peptide)”, “significantly decreased”.

The assay is the same for the next values; noted with them: Table 3; 1 μg/mL for 24 hours, then IL-2 50 ng/mL 12 hours; vs stimulator only.
Take “Z3: ZAG protein-derived peptide, SEQ ID NO. 3: EDWKQDSQLQKAREDIFMETLKDIVEYYND (ZAG protein-derived peptide)”: the “T lymphocyte (human) IL-4” value is on record as “•”.
Regarding “Z4: ZAG protein-derived peptide, SEQ ID NO. 4: SNGSHVLQGRFGCEIENNRSSGAFWKYYYD (ZAG protein-derived peptide)”, the “T lymphocyte (human) IL-4” value is “•”.
As to “Z5: ZAG protein-derived peptide, SEQ ID NO. 5: GKDYIEFNKEIPAWVPFDPAAQITKQKWEA (ZAG protein-derived peptide)”, the “T lymphocyte (human) IL-4” value was “•”.

For the next assay, the system named is CCL17/TARC. The assay is described as follows: Atopic dermatitis efficacy test using keratinocytes (HaCaT): CCL17/TARC released after TNF-α and IFN-γ, ELISA. Type of assay: cell-based, human. Further details: key to HaCaT (human) CCL17/TARC: •: have statistical significance, determining as effective, compared with the positive control. The note with it: Example 2-3, FIG. 2C; HaCaT; 1 μg/mL 24 hours, TNF-α 0.4 μg/mL and IFN-γ 0.4 μg/mL 24 hours; compared with positive control (Pos). On the procedure:
as §1
Keratinocytes (HaCaT cells) were treated with 0.4 μg/mL of TNF-α and 0.4 μg/mL of IFN-γ as stimulators for 24 hours, and then a concentration of CCL17/TARC released in a cell culture medium was confirmed by ELISA assay.
as §2, §3
With “Z3: ZAG protein-derived peptide, SEQ ID NO. 3: EDWKQDSQLQKAREDIFMETLKDIVEYYND (ZAG protein-derived peptide)”, the “CCL17/TARC concentration released in cell culture medium” value is on record as “significantly decreased”.

Still in this assay, the particulars now being: Table 3; 1 μg/mL for 24 hours, then TNF-α 0.4 μg/mL, IFN-γ 0.4 μg/mL 24 hours; vs stimulator only.
“Z3: ZAG protein-derived peptide, SEQ ID NO. 3: EDWKQDSQLQKAREDIFMETLKDIVEYYND (ZAG protein-derived peptide)”: the “HaCaT (human) CCL17/TARC” value is recorded as “•”.
As to “Z4: ZAG protein-derived peptide, SEQ ID NO. 4: SNGSHVLQGRFGCEIENNRSSGAFWKYYYD (ZAG protein-derived peptide)”, the “HaCaT (human) CCL17/TARC” value is listed as “•”.
In the case of “Z5: ZAG protein-derived peptide, SEQ ID NO. 5: GKDYIEFNKEIPAWVPFDPAAQITKQKWEA (ZAG protein-derived peptide)”, the “HaCaT (human) CCL17/TARC” value is “•”.
Still for that read-out and setting: the same measure for “Z6: ZAG protein-derived peptide, SEQ ID NO. 6: EPVYVQRAKAYLEEECPATLRKYLKYSKNI (ZAG protein-derived peptide)”: “•”.
With “Z7: ZAG protein-derived peptide, SEQ ID NO. 7: LDRQDPPSVVVTSHQAPGEKKKLKCLAYDF (ZAG protein-derived peptide)”, the “HaCaT (human) CCL17/TARC” value is “•”.

In the next assay the test system is Histamine. Description: Atopic dermatitis efficacy test using mast cells (RBL-2H3): histamine released after PMA and A23187, ELISA. Format: cell-based, rat. Further details: key: •: have statistical significance, determining as effective, compared with the positive control. To be noted: Table 3; 1 μg/mL for 24 hours, then PMA 1 μg/mL, A23187 1 μg/mL 12 hours; vs stimulator only. As for the experimental part:
as §1
Mast cells (RBL-2H3) were treated with 1 μg/mL of PMA and 1 μg/mL of A23187 as stimulators for 12 hours, and a concentration of histamine released in a cell culture medium was confirmed by ELISA assay.
as §2, §3
Mast cells (RBL-2H3) were treated with 1 μg/mL of PMA and 1 μg/mL of A23187 as simulators for 12 hours, and then a concentration of histamine released in a cell culture medium was confirmed by ELISA assay. As compared with the positive control (Pos), in all of the oligopeptide-treated groups, the histamine release was reduced (FIG. 2B).
On to “Z3: ZAG protein-derived peptide, SEQ ID NO. 3: EDWKQDSQLQKAREDIFMETLKDIVEYYND (ZAG protein-derived peptide)”, for which the “RBL-2H3 (rat) Histamine” value was “•”.
Same read-out and setting: the same measure for “Z4: ZAG protein-derived peptide, SEQ ID NO. 4: SNGSHVLQGRFGCEIENNRSSGAFWKYYYD (ZAG protein-derived peptide)”: “•”; for “Z5: ZAG protein-derived peptide, SEQ ID NO. 5: GKDYIEFNKEIPAWVPFDPAAQITKQKWEA (ZAG protein-derived peptide)”: “•”; for “Z6: ZAG protein-derived peptide, SEQ ID NO. 6: EPVYVQRAKAYLEEECPATLRKYLKYSKNI (ZAG protein-derived peptide)”: “•”.
In the case of “Z7: ZAG protein-derived peptide, SEQ ID NO. 7: LDRQDPPSVVVTSHQAPGEKKKLKCLAYDF (ZAG protein-derived peptide)”, the “RBL-2H3 (rat) Histamine” value is given as “•”.

The subject of a further assay is IL-6. Description: Atopic dermatitis efficacy test using macrophages (RAW 264.7): IL-6 released after LPS, ELISA. Format: cell-based, mouse. Further details: key to RAW 264.7 (mouse) IL-6: •: have statistical significance, determining as effective, compared with the positive control. To be noted: Example 2-1, FIG. 2A; RAW 264.7; 1 μg/mL 24 hours, LPS 0.1 μg/mL 24 hours; compared with positive control (Pos). On the procedure: as §1
Macrophages (RAW 264.7 cells) were treated with a stimulator LPS at a concentration of 0.1 μg/mL for 24 hours, and then the concentration of IL-6 released in a cell culture medium was confirmed by ELISA assay.
as §2, §3
Macrophages (RAW 264.7 cells) were treated with a stimulator LPS at a concentration of 0.1 μg/mL for 24 hours, and then a concentration of IL-6 released in a cell culture medium was confirmed by ELISA assay.
Turning to “Z3: ZAG protein-derived peptide, SEQ ID NO. 3: EDWKQDSQLQKAREDIFMETLKDIVEYYND (ZAG protein-derived peptide)”, the “IL-6 concentration released in cell culture medium” value is recorded as “significantly decreased”.

The assay is the same for the next values; noted with them: Table 3; 1 μg/mL for 24 hours, then LPS 0.1 μg/mL 24 hours; vs stimulator only.
As for “Z3: ZAG protein-derived peptide, SEQ ID NO. 3: EDWKQDSQLQKAREDIFMETLKDIVEYYND (ZAG protein-derived peptide)”, the “RAW 264.7 (mouse) IL-6” value was “•”.
As to “Z4: ZAG protein-derived peptide, SEQ ID NO. 4: SNGSHVLQGRFGCEIENNRSSGAFWKYYYD (ZAG protein-derived peptide)”, the “RAW 264.7 (mouse) IL-6” value is reported as “•”.
With “Z5: ZAG protein-derived peptide, SEQ ID NO. 5: GKDYIEFNKEIPAWVPFDPAAQITKQKWEA (ZAG protein-derived peptide)”, the “RAW 264.7 (mouse) IL-6” value is listed as “•”.
Take “Z6: ZAG protein-derived peptide, SEQ ID NO. 6: EPVYVQRAKAYLEEECPATLRKYLKYSKNI (ZAG protein-derived peptide)”: the “RAW 264.7 (mouse) IL-6” value is listed as “•”.
The same measure, in the same setting: the same measure for “Z7: ZAG protein-derived peptide, SEQ ID NO. 7: LDRQDPPSVVVTSHQAPGEKKKLKCLAYDF (ZAG protein-derived peptide)”: “•”.

The values are drawn from US11213567B2, “ZAG-derived peptide and use thereof” (L&C Bio Co., LTD., priority 2017, dated 2022).
